# Data published in publication PMC7041945, “Misfolded proteins bind and activate death receptor 5 to trigger apoptosis during unresolved endoplasmic reticulum stress” (eLife, 2020).
# How the values were obtained:
# [1] = tested on: CHOP, BiP, and DR5 mRNA in HCT116 cells; test: qPCR of UPR target transcripts (CHOP, BiP, DR5); assay type: cell-based, Homo sapiens; details: for fold induction DR5 total / fold induction CHOP: 24 hr, Rep 2, vs 24 hr cytoGFP (empty traffo)
# Method: Cells were grown in 6-well plates and harvested with 0.5 ml of TRIzol reagent (Life Technologies) per manufacturer’s protocol to extract RNA. For cDNA synthesis, 500 ng of total RNA was reverse transcribed with 2 μl of the SuperScript VILO master mix (Life Technologies # 11755050) in a total reaction volume of 10 μl following the manufacturer’s protocol for reaction temperature and duration. The reverse transcription product was diluted to 200 μl with 10 mM Tris-HCl pH 8.2 and used at 1:100 dilution for subsequent RT-PCR reactions.
# PCR samples were prepared as described by manufacturer’s protocols from iQ SYBR Green Supermix (BioRad #17088800).
# For each experiment, qRT-PCR reactions were set up in triplicate and run using a CFX96 Real Time System (Bio-Rad). Quantitation cycles were determined with CFX Manager 3.0 software (Bio-Rad) and then normalized to GAPDH as an internal control.
# GFP (340+341) = test: qPCR of GFP transcript (expression of GFP-tagged construct); assay type: cell-based; details: Rep 2; for avg. fold induction GFP (340+341) / fold induction GFP (340+341): vs 24 hr cytoGFP (empty traffo)
# [2] = Compiled Reps INS RHO, average of 6 reps
substance,measurement,setting,value
RHO-GFP: GFP-tagged rhodopsin expressed from plasmid,fold induction DR5 total,[1]; replicate 1,1.485
same,fold induction CHOP,[1]; replicate 2,1.831
same,fold induction DR5 total,[1]; replicate 2,1.441
same,fold induction CHOP,[1]; replicate 3,1.789
same,fold induction DR5 total,[1]; replicate 3,1.277
same,BiP avg fold change relative to empty,"[1]; Compiled Reps INS RHO, average of 3 reps",1.525
same,CHOP avg fold change relative to empty,[1]; [2],1.961
same,DR5 avg fold change relative to empty,[1]; [2],1.368
same,GAPDH avg fold change relative to empty,[1]; [2],1.006
same,GFP construct avg fold change relative to empty,[1]; [2],63.7569
same,BiP fold change relative to empty,"[1]; Compiled Reps INS RHO, rep 1",1.759
same,CHOP fold change relative to empty,"[1]; Compiled Reps INS RHO, rep 1",2.318
same,DR5 fold change relative to empty,"[1]; Compiled Reps INS RHO, rep 1",1.2854
same,GAPDH fold change relative to empty,"[1]; Compiled Reps INS RHO, rep 1",0.9696
same,GFP construct fold change relative to empty,"[1]; Compiled Reps INS RHO, rep 1",45.8961
same,BiP fold change relative to empty,"[1]; Compiled Reps INS RHO, rep 2",1.438
same,CHOP fold change relative to empty,"[1]; Compiled Reps INS RHO, rep 2",1.9687
same,DR5 fold change relative to empty,"[1]; Compiled Reps INS RHO, rep 2",1.492
same,GAPDH fold change relative to empty,"[1]; Compiled Reps INS RHO, rep 2",1.117
same,GFP construct fold change relative to empty,"[1]; Compiled Reps INS RHO, rep 2",55.1085
same,BiP fold change relative to empty,"[1]; Compiled Reps INS RHO, rep 3",1.377
same,CHOP fold change relative to empty,"[1]; Compiled Reps INS RHO, rep 3",1.972
same,DR5 fold change relative to empty,"[1]; Compiled Reps INS RHO, rep 3",1.23
same,GAPDH fold change relative to empty,"[1]; Compiled Reps INS RHO, rep 3",0.9232
same,GFP construct fold change relative to empty,"[1]; Compiled Reps INS RHO, rep 3",65.8656
same,CHOP fold change relative to empty,"[1]; Compiled Reps INS RHO, rep 4",1.892
same,DR5 fold change relative to empty,"[1]; Compiled Reps INS RHO, rep 4",1.485
same,GAPDH fold change relative to empty,"[1]; Compiled Reps INS RHO, rep 4",0.8039
same,GFP construct fold change relative to empty,"[1]; Compiled Reps INS RHO, rep 4",62.5314
same,CHOP fold change relative to empty,"[1]; Compiled Reps INS RHO, rep 5",1.831
same,DR5 fold change relative to empty,"[1]; Compiled Reps INS RHO, rep 5",1.441
same,GAPDH fold change relative to empty,"[1]; Compiled Reps INS RHO, rep 5",1.063
same,GFP construct fold change relative to empty,"[1]; Compiled Reps INS RHO, rep 5",61.8163
same,CHOP fold change relative to empty,"[1]; Compiled Reps INS RHO, rep 6",1.789
same,DR5 fold change relative to empty,"[1]; Compiled Reps INS RHO, rep 6",1.277
same,GAPDH fold change relative to empty,"[1]; Compiled Reps INS RHO, rep 6",1.16
same,GFP construct fold change relative to empty,"[1]; Compiled Reps INS RHO, rep 6",91.3236
same,UPR target gene transcription,"[1]; HCT116, transfected 24 hr",upregulated BiP and CHOP mRNAs
same,2^-(deltaCq) GFP (340+341),"GFP (340+341); 3 hr, replicate 1",0.5385
same,Cq GFP (340+341),"GFP (340+341); 3 hr, replicate 1",20.6309
same,"Cq(sample) - avg Cq(GAPDH), GFP (340+341)","GFP (340+341); 3 hr, replicate 1",0.893
same,2^-(deltaCq) GFP (340+341),"GFP (340+341); 3 hr, replicate 2",0.6201
same,Cq GFP (340+341),"GFP (340+341); 3 hr, replicate 2",20.4274
same,"Cq(sample) - avg Cq(GAPDH), GFP (340+341)","GFP (340+341); 3 hr, replicate 2",0.6895
same,2^-(deltaCq) GFP (340+341),"GFP (340+341); 3 hr, replicate 3",0.5059
same,Cq GFP (340+341),"GFP (340+341); 3 hr, replicate 3",20.721
same,"Cq(sample) - avg Cq(GAPDH), GFP (340+341)","GFP (340+341); 3 hr, replicate 3",0.9831
same,avg. fold induction GFP (340+341),"GFP (340+341); 3 hr, mean of 3 replicates",0.02018
same,fold induction GFP (340+341),"GFP (340+341); 3 hr, replicate 1",0.01959
same,fold induction GFP (340+341),"GFP (340+341); 3 hr, replicate 2",0.02256
same,fold induction GFP (340+341),"GFP (340+341); 3 hr, replicate 3",0.0184
same,2^-(deltaCq) GFP (340+341),"GFP (340+341); 7 hr, replicate 1",2.306
same,Cq GFP (340+341),"GFP (340+341); 7 hr, replicate 1",18.4525
same,"Cq(sample) - avg Cq(GAPDH), GFP (340+341)","GFP (340+341); 7 hr, replicate 1",-1.205
same,2^-(deltaCq) GFP (340+341),"GFP (340+341); 7 hr, replicate 2",2.483
same,Cq GFP (340+341),"GFP (340+341); 7 hr, replicate 2",18.3457
same,"Cq(sample) - avg Cq(GAPDH), GFP (340+341)","GFP (340+341); 7 hr, replicate 2",-1.312
same,2^-(deltaCq) GFP (340+341),"GFP (340+341); 7 hr, replicate 3",2.811
same,Cq GFP (340+341),"GFP (340+341); 7 hr, replicate 3",18.1671
same,"Cq(sample) - avg Cq(GAPDH), GFP (340+341)","GFP (340+341); 7 hr, replicate 3",-1.4909
same,avg. fold induction GFP (340+341),"GFP (340+341); 7 hr, mean of 3 replicates",0.09215
same,fold induction GFP (340+341),"GFP (340+341); 7 hr, replicate 1",0.08389
same,fold induction GFP (340+341),"GFP (340+341); 7 hr, replicate 2",0.09033
same,fold induction GFP (340+341),"GFP (340+341); 7 hr, replicate 3",0.1022
same,avg. 2^-(deltaCq) GFP (340+341),"GFP (340+341); 24 hr, mean of 3 replicates",71.8905
same,2^-(deltaCq) GFP (340+341),"GFP (340+341); 24 hr, replicate 1",62.5314
same,Cq GFP (340+341),"GFP (340+341); 24 hr, replicate 1",13.0515
same,"Cq(sample) - avg Cq(GAPDH), GFP (340+341)","GFP (340+341); 24 hr, replicate 1",-5.967
same,2^-(deltaCq) GFP (340+341),"GFP (340+341); 24 hr, replicate 2",61.8163
same,Cq GFP (340+341),"GFP (340+341); 24 hr, replicate 2",13.0681
same,"Cq(sample) - avg Cq(GAPDH), GFP (340+341)","GFP (340+341); 24 hr, replicate 2",-5.95
same,2^-(deltaCq) GFP (340+341),"GFP (340+341); 24 hr, replicate 3",91.3236
same,Cq GFP (340+341),"GFP (340+341); 24 hr, replicate 3",12.5051
same,"Cq(sample) - avg Cq(GAPDH), GFP (340+341)","GFP (340+341); 24 hr, replicate 3",-6.513
same,avg. fold induction GFP (340+341),"GFP (340+341); 24 hr, mean of 3 replicates",2.615
same,fold induction GFP (340+341),"GFP (340+341); 24 hr, replicate 1",2.275
same,fold induction GFP (340+341),"GFP (340+341); 24 hr, replicate 2",2.2486
same,fold induction GFP (340+341),"GFP (340+341); 24 hr, replicate 3",3.322
